Data published in patent US8952024B2, “Herbicidal pyrimidone derivatives” (E I du Pont de Nemours and Company, priority 2009, dated 2015).

Assays:
Type in all cases: in vivo
[1] = system: wheat (Triticum aestivum); experiment: Test B pre-/postemergence plant response; details: for Plant response rating, Wheat: Postemergence, scale 0 to 100 (0 no effect, 100 complete control)
Method in brief: (§1)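 Ratings reflect visual comparison with untreated controls 13 to 15 days after application, from 0 (no effect) to 100 (complete control). Application was preemergence to seeded loam/sand soil or postemergence to 1- to 4-leaf plants, with compound in a non-phytotoxic, surfactant-containing solvent.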

wild oat (Avena fatua) = experiment: Test B pre-/postemergence plant response
Method in brief: as §1

soybean (Glycine max) = experiment: Test B pre-/postemergence plant response; details: for Plant response rating, Soybean: Postemergence, scale 0 to 100 (0 no effect, 100 complete control)
Method in brief: as §1

[2] = system: green foxtail (Setaria viridis); experiment: Test B pre-/postemergence plant response
Method in brief: as §1

[3] = system: cocklebur (Xanthium strumarium); experiment: Test B pre-/postemergence plant response
Method in brief: as §1

[4] = system: bermudagrass (Cynodon dactylon); experiment: Test B pre-/postemergence plant response
Method in brief: as §1

[5] = system: blackgrass (Alopecurus myosuroides); experiment: Test B pre-/postemergence plant response
Method in brief: as §1

[6] = system: johnsongrass (Sorghum halepense); experiment: Test B pre-/postemergence plant response
Method in brief: as §1

kochia (Kochia scoparia) = experiment: Test B pre-/postemergence plant response
Method in brief: as §1

[7] = system: ragweed (common ragweed, Ambrosia elatior); experiment: Test B pre-/postemergence plant response; details: for Plant response rating, Ragweed: Postemergence, scale 0 to 100 (0 no effect, 100 complete control)
Method in brief: as §1

[8] = system: morningglory (Ipomoea coccinea); experiment: Test B pre-/postemergence plant response
Method in brief: as §1

[9] = system: downy bromegrass (Bromus tectorum); experiment: Test B pre-/postemergence plant response
Method in brief: as §1

[10] = system: velvetleaf (Abutilon theophrasti); experiment: Test B pre-/postemergence plant response; details: for Plant response rating, Velvetleaf: Postemergence, scale 0 to 100 (0 no effect, 100 complete control)
Method in brief: as §1

[11] = system: giant foxtail (Setaria faberii); experiment: Test B pre-/postemergence plant response
Method in brief: as §1

[12] = system: yellow nutsedge (Cyperus esculentus); experiment: Test B pre-/postemergence plant response
Method in brief: as §1

[13] = system: canarygrass (Phalaris minor); experiment: Test B postemergence plant response
Method in brief: (§2)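 Visual ratings from 0 (no effect) to 100 (complete control), made against controls 13–15 days after treatment, kept in a greenhouse. Compounds were applied postemergence to potted plants at the 1- to 4-leaf stage (2–18 cm).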

[14] = system: windgrass (Apera spica-venti); experiment: Test B postemergence plant response; details: for Plant response rating, Windgrass: Postemergence, scale 0 to 100 (0 no effect, 100 complete control)
Method in brief: as §2

[15] = system: chickweed (Stellaria media); experiment: Test B postemergence plant response
Method in brief: as §2

[16] = 62 g ai/ha, postemergence, 0 is no effect, 100 is complete control, 13 to 15 days
[17] = 31 g ai/ha, postemergence, scale 0 to 100, 0 is no effect, 100 is complete control
[18] = Postemergence, 125 g ai/ha, scale 0 to 100 (0 no effect, 100 complete control)
[19] = Postemergence, 250 g ai/ha, scale 0 to 100 (0 no effect, 100 complete control)

Structure (SMILES): O=C1CCCC(O)=C1C(=O)c1cnc(-c2ccsc2)n(CC2CCCO2)c1=O (stereo not shown) [Compound 98]
- Wheat plant response rating (0 to 100 scale) [1, 16]: 5
- Plant response rating, Wheat ([1]; 125 g ai/ha): 5
- Plant response rating, Wheat ([1]; 250 g ai/ha): 20
- Plant response rating, Oat, Wild (wild oat (Avena fatua); [17]): 10
- Oat, Wild plant response rating (0 to 100 scale) (wild oat (Avena fatua); [16]): 20
- Plant response rating, Oat, Wild (wild oat (Avena fatua); [18]): 20
- Plant response rating, Oat, Wild (wild oat (Avena fatua); [19]): 50
- Soybean plant response rating (0 to 100 scale) (soybean (Glycine max); [16]): 98
- Plant response rating, Soybean (soybean (Glycine max); 125 g ai/ha): 98
- Plant response rating, Soybean (soybean (Glycine max); 250 g ai/ha): 100
- Plant response rating, Foxtail, Green [2, 17]: 30
- Foxtail, Green plant response rating (0 to 100 scale) [2, 16]: 85
- Plant response rating, Foxtail, Green [2, 18]: 85
- Plant response rating, Foxtail, Green [2, 19]: 95
- Plant response rating, Cocklebur [3, 17]: 98
- Cocklebur plant response rating (0 to 100 scale) [3, 16]: 100
- Plant response rating, Cocklebur [3, 18]: 100
- Plant response rating, Cocklebur [3, 19]: 100
- Plant response rating, Bermudagrass [4, 17]: 75
- Bermudagrass plant response rating (0 to 100 scale) [4, 16]: 80
- Plant response rating, Bermudagrass [4, 18]: 85
- Plant response rating, Bermudagrass [4, 19]: 98
- Plant response rating, Blackgrass [5, 17]: 0
- Blackgrass plant response rating (0 to 100 scale) [5, 16]: 5
- Plant response rating, Blackgrass [5, 18]: 20
- Plant response rating, Blackgrass [5, 19]: 50
- Plant response rating, Johnsongrass [6, 17]: 55
- Johnsongrass plant response rating (0 to 100 scale) [6, 16]: 70
- Plant response rating, Johnsongrass [6, 18]: 75
- Plant response rating, Johnsongrass [6, 19]: 98
- Plant response rating, Kochia (kochia (Kochia scoparia); [17]): 65
- Kochia plant response rating (0 to 100 scale) (kochia (Kochia scoparia); [16]): 70
- Plant response rating, Kochia (kochia (Kochia scoparia); [18]): 80
- Plant response rating, Kochia (kochia (Kochia scoparia); [19]): 98
- Ragweed plant response rating (0 to 100 scale) [7, 16]: 75
- Plant response rating, Ragweed ([7]; 125 g ai/ha): 80
- Plant response rating, Ragweed ([7]; 250 g ai/ha): 90
- Plant response rating, Morningglory [8, 17]: 70
- Morningglory plant response rating (0 to 100 scale) [8, 16]: 85
- Plant response rating, Morningglory [8, 18]: 100
- Plant response rating, Morningglory [8, 19]: 100
- Plant response rating, Bromegrass, Downy [9, 17]: 5
- Bromegrass, Downy plant response rating (0 to 100 scale) [9, 16]: 5
- Plant response rating, Bromegrass, Downy [9, 18]: 5
- Plant response rating, Bromegrass, Downy [9, 19]: 40
- Velvetleaf plant response rating (0 to 100 scale) [10, 16]: 95
- Plant response rating, Velvetleaf ([10]; 125 g ai/ha): 95
- Plant response rating, Velvetleaf ([10]; 250 g ai/ha): 98
- Plant response rating, Foxtail, Giant [11, 17]: 65
- Foxtail, Giant plant response rating (0 to 100 scale) [11, 16]: 75
- Plant response rating, Foxtail, Giant [11, 18]: 85
- Plant response rating, Foxtail, Giant [11, 19]: 85
- Plant response rating, Nutsedge, Yellow [12, 17]: 50
- Nutsedge, Yellow plant response rating (0 to 100 scale) [12, 16]: 60
- Plant response rating, Nutsedge, Yellow [12, 18]: 70
- Plant response rating, Nutsedge, Yellow [12, 19]: 75
- Plant response rating, Canarygrass [13, 17]: 5
- Canarygrass plant response rating (0 to 100 scale) [13, 16]: 20
- Plant response rating, Canarygrass [13, 18]: 35
- Plant response rating, Canarygrass [13, 19]: 50
- Windgrass plant response rating (0 to 100 scale) [14, 16]: 20
- Plant response rating, Windgrass ([14]; 125 g ai/ha): 50
- Plant response rating, Windgrass ([14]; 250 g ai/ha): 70
- Plant response rating, Chickweed [15, 17]: 80
- Chickweed plant response rating (0 to 100 scale) [15, 16]: 80
- Plant response rating, Chickweed [15, 18]: 98
- Plant response rating, Chickweed [15, 19]: 100
